We go through one compound from ChEMBL document CHEMBL1153751, “Biologically active tetranorditerpenoids from the fungus Sclerotinia homoeocarpa causal agent of dollar spot in turfgrass” (J Nat Prod, 2009).

Series [1] has as its system Agrostis stolonifera. Description: Phytotoxicity against Agrostis stolonifera at 0.1 mg/ml. The series is classed as functional, organism-based.
Series [2] has as its system Lactuca sativa. Briefly: Phytotoxicity against Lactuca sativa at 0.01 mg/ml. The series is classed as functional, organism-based.
A further series relates to KB. Description: Cytotoxicity against human KB cells at 10 ug/ml after 48 hrs by neutral red dye staining. The series is classed as functional, cell-based.
The test system of series [3] is Lactuca sativa. Description: Phytotoxicity against Lactuca sativa at 0.001 mg/ml. The series is classed as functional, organism-based.
Series [4] in a line: Cytotoxicity against pig LLC-PK11 cells at 10 ug/ml after 48 hrs by neutral red dye staining. The series is classed as functional, cell-based, Sus scrofa.
Series [5] has as its system Agrostis stolonifera. Description: Phytotoxicity against Agrostis stolonifera at 0.01 mg/ml. The series is classed as functional, organism-based.
Series [6] deals with Agrostis stolonifera. Description: Phytotoxicity against Agrostis stolonifera at 1 mg/ml. The series is classed as functional, organism-based.
A further series has as its system SK-MEL. Description: Cytotoxicity against human SK-MEL cells at 10 ug/ml after 48 hrs by neutral red dye staining. The series is classed as functional, cell-based.
For another series, the system named is Vero. Briefly: Cytotoxicity against african green monkey Vero cells at 4760 ng/ml after 48 hrs by neutral red dye staining. The series is classed as cell-based. The note with it: Chlorocebus sabaeus.
The test system of series [7] is Plasmodium falciparum. Briefly: Antiplasmodial activity against chloroquine-sensitive Plasmodium falciparum D6 assessed as LDH activity at 4760 ng/ml after 72 hrs by malstat reagent method. The series is classed as functional, organism-based.
Series [8] relates to Lactuca sativa. Description: Phytotoxicity against Lactuca sativa at 0.1 mg/ml. The series is classed as functional, organism-based.
The test system of another series is BT-549. Briefly: Cytotoxicity against human BT549 cells at 10 ug/ml after 48 hrs by neutral red dye staining. The series is classed as functional, cell-based.
Series [9] concerns Agrostis stolonifera. Description: Phytotoxicity against Agrostis stolonifera at 0.001 mg/ml. The series is classed as functional, organism-based.
The next series concerns SK-OV-3. Briefly: Cytotoxicity against human SKOV3 cells at 10 ug/ml after 48 hrs by neutral red dye staining. The series is classed as functional, cell-based.
Series [10] concerns Plasmodium falciparum. Briefly: Antiplasmodial activity against chloroquine-resistant Plasmodium falciparum W2 assessed as LDH activity at 4760 ng/ml after 72 hrs by malstat reagent method. The series is classed as functional, organism-based.

Calls of active or inactive are those of the source. No cut-off for these calls is given here.

Consider `C=C1C(O)CC2[C@](C)(CCC[C@]2(C)C(=O)O)C1CC(=O)O` (stereo not given in full), for which the result in the series with Agrostis stolonifera [1], with Lactuca sativa [2], with Lactuca sativa [3], in the series on Agrostis stolonifera [5], with Agrostis stolonifera [6] and with Lactuca sativa [8] was inactive. For the same compound, in the series with Agrostis stolonifera [9], the result was inactive. Also, the inhibition entry in the series on KB, in the series on SK-MEL, in the series on Plasmodium falciparum [7], in the series on BT-549, in the series with SK-OV-3 and with Plasmodium falciparum [10] was “inactive” in each case. Moreover, the “Cytotoxicity at 10 ug/ml” value in [4] was “Not Active”. The “inhibition (INH)” value in the series with Vero is “Not Active”.
